Data on 16 compounds can be found in ChEMBL document CHEMBL5223177, “Pyrazole Ureas as Low Dose, CNS Penetrant Glucosylceramide Synthase Inhibitors for the Treatment of Parkinson's Disease” (ACS Med Chem Lett, 2023).

A value given as a limit tells only on which side of the number the result lay.

A short description of series [1]: Lipophilicity, logD of compound by HPLC method. Format: physicochemical.
Series [2] concerns the target T1, Ceramide glucosyltransferase (Homo sapiens, UniProt Q16739).
T1 sequence (Q16739 whole entry): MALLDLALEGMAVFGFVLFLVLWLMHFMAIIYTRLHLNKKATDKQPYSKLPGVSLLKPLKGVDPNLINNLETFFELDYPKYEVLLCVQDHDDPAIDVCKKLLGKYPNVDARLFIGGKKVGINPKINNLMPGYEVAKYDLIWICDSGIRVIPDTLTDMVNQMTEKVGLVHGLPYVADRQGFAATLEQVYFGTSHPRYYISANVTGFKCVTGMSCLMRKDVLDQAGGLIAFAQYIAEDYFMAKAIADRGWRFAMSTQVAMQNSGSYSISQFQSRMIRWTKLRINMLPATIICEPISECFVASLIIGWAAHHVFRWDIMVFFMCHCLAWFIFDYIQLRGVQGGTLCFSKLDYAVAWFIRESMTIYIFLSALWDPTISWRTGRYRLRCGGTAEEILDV
In words: Inhibition of Glucosylceramide synthase (unknown origin) using C6-ceramide and UDP-glucose as substrate preincubated for 30 mins followed by substrate addition and measured after 2 hrs by UDP-Glo luminometer analysis.

For series [3], the system named is rat P-gp. In words: Substrate activity at rat P-gp assessed as apparent permeability at 1 uM. The following applies: not told. It counts as ADME.
The test system of series [4] is rat P-gp. In words: Substrate activity at rat P-gp assessed as efflux ratio at 1 uM. It counts as ADME. The following applies: not told.
Series [5] has as its target T1, Ceramide glucosyltransferase. In words: Inhibition of GCS in human fibroblast. It counts as cell-based.
The species entered for a further series is Homo sapiens. In words: Selectivity ratio of IC50 for human 5HT3A to IC50 for GCS (unknown origin).
Series [6] is described as follows: Bioavailability in rat at 5 to 10 mg/kg, po or 0.05 to 2 mg/kg, iv. Format: ADME, organism-based. As to conditions: in vivo, dose 5-10 mg/kg.
Series [7] addresses T2, mouse BCRP (ABCG2) (Mus musculus, UniProt Q7TMS5).
T2 sequence (Q7TMS5 whole entry): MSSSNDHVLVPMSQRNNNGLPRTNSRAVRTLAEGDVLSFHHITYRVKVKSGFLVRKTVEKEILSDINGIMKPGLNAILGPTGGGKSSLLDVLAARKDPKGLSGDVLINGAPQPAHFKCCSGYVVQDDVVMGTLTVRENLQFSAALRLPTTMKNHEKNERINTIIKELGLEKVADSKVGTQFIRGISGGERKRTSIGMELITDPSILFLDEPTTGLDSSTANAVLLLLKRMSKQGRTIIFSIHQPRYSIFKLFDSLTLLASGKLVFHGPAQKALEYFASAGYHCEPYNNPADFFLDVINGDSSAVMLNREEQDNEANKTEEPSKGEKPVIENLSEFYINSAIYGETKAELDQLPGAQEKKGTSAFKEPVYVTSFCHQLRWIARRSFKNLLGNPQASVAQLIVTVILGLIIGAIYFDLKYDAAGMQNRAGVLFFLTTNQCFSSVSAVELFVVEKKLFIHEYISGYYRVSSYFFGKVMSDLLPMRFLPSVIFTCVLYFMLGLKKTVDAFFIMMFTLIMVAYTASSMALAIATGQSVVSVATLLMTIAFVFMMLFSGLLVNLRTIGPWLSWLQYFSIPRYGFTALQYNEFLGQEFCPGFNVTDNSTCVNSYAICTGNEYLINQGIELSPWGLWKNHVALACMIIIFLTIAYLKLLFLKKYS
In words: Substrate activity at mouse BCRP assessed as efflux ratio at 1 uM. Format: ADME. The following applies: not told.

Series [8] is described as follows: Mean residence time in rat at 5 to 10 mg/kg, po or 0.05 to 2 mg/kg, iv. It counts as ADME, organism-based. As to conditions: in vivo, dose 5-10 mg/kg.
Series [9] concerns the target T3, 5-hydroxytryptamine receptor 3A (Homo sapiens, UniProt P46098).
T3 sequence (P46098 whole entry): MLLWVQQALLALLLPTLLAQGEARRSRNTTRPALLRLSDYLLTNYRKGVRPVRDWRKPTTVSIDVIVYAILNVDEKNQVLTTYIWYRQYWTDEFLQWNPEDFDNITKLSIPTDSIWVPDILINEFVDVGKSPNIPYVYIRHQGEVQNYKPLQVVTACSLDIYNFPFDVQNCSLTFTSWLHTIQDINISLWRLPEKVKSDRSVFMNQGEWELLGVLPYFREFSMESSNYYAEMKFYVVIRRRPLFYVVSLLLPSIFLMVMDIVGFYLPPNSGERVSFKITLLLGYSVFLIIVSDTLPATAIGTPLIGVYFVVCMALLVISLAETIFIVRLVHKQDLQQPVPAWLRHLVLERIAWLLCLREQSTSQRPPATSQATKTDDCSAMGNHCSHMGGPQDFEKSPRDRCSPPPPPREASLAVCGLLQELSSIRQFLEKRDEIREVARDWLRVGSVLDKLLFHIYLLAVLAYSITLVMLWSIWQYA
In words: Antagonist activity at human 5HT3A expressed in HEK293 cells incubated for 1 hr by FLIPR assay. Format: cell-based.

The nature of series [10]: Intrinsic clearance in rat at 5 to 10 mg/kg, po or 0.05 to 2 mg/kg, iv. It counts as ADME, organism-based. The following applies: in vivo, dose 5-10 mg/kg.
The target in series [11] is T2, mouse BCRP (ABCG2). In words: Substrate activity at mouse BCRP assessed as apparent permeability at 1 uM. Format: ADME. The following applies: not told.

Compound `O=C(c1nn(-c2ccc(F)c(Cl)c2)c2c1COCC2)N1CCN2CCC1CC2` came in with a logD in series [1] of 1.9. Moreover, half-maximal inhibition in series [2] (IC50) required 6 nM. Besides, in the series on rat P-gp [3], the Papp at 1 µM was found to be 32 ×10⁻⁶ cm/s. Moreover, in the series with rat P-gp [4], the efflux ratio at 1 µM was 19.
With `O=C(N1CCN2CCC1CC2)n1nc(-n2cc(C(F)(F)F)cn2)c2c1[C@H]1C[C@H]1C2`, the IC50 was 33 nM in [5] and 2470 nM in series [9]. For the same compound, the Ratio IC50 in the series listed under Homo sapiens is 25000. This compound returned a bioavailability in series [6] of 67%. Besides, the efflux ratio at 1 µM came out at 0.8 on mouse BCRP (ABCG2) [7] and 2.2 in the series with rat P-gp [4]. The MRT in series [8] was 8.2 h. In series [10], this compound yielded a CL of 85 mL/min/kg. Besides, the Papp at 1 µM on mouse BCRP (ABCG2) [11] was 23 ×10⁻⁶ cm/s.
`COc1ccc(-n2nc(C(=O)N3CCCNCC3)c3c2CCOC3)cc1` gave a concentration for half-maximal inhibition (IC50) in series [2] of 690 nM.
Turning to `O=C(N1CCN2CCC1CC2)n1nc(-c2ccc(C(F)(F)F)cc2)c2c1COCC2`, the IC50 in [5] came out at 21 nM; in series [9], 1590 nM. Moreover, the Ratio IC50 in the series filed under Homo sapiens came to 647. For the same compound, the efflux ratio at 1 µM turned out to be 1.2 on mouse BCRP (ABCG2) [7] and 3.2 in the series with rat P-gp [4]. The compound further yielded a mean residence time MRT in series [8] of 3.3 h. The CL in series [10] was determined as 610 mL/min/kg. In addition, the Papp at 1 µM on mouse BCRP (ABCG2) [11] came to 33 ×10⁻⁶ cm/s.
For the compound `COc1ccc(-n2nc(C(=O)N3CCNCC(CO)C3)c3c2CCOC3)cc1` (racemic), the Papp at 1 µM in the series with rat P-gp [3] was 6 ×10⁻⁶ cm/s.
Take `COc1ccc(-n2nc(C(=O)N3CCN4CCC3CC4)c3c2CCOC3)cc1`: in the series with rat P-gp [3], the Papp at 1 µM turned out to be 31 ×10⁻⁶ cm/s.
As for `O=C(N1CCN2CCC1CC2)n1nc(-n2cc(C(F)(F)F)cn2)c2c1CCOC2`, the IC50 in series [5] was found to be 32 nM; in series [9], 7470 nM. In the series listed under Homo sapiens, the Ratio IC50 worked out at 2070. For the same compound, the values for the efflux ratio at 1 µM at mouse BCRP (ABCG2) [7] and in the series with rat P-gp [4] were 1.2 and 2.7, respectively. Besides, the MRT in series [8] stood at 3.2 h. In addition, in series [10], the CL was 39 mL/min/kg. Besides, the apparent permeability coefficient (Papp) at 1 µM at mouse BCRP (ABCG2) [11] was 42 ×10⁻⁶ cm/s.
In the case of `COc1ccc(-n2nc(C(=O)N3CCCN(C)CC3)c3c2CCOC3)cc1`, the IC50 in [5] was found to be 180 nM; in series [2], 1000 nM. Besides, in the series with rat P-gp [4], the efflux ratio at 1 µM was 5.
In series [2], `COc1ccc(-n2nc(C(=O)N3CCN(C)CC(F)C3)c3c2CCOC3)cc1` (racemic) yielded an IC50 of 12500 nM.
On the same count and under the same terms, in the case of `COc1ccc(-n2nc(C(=O)N3CC(c4cnc(C)n4C)C3)c3c2CCOC3)cc1` it was above 28000 nM.
Consider `O=C(N1CCN2CCC1CC2)n1nc(-c2ccc(F)c(Cl)c2)c2c1COCC2`, for which the logD in series [1] was 2.8. In addition, the IC50 in series [2] worked out at 1 nM. The Papp at 1 µM in the series on rat P-gp [3] turned out to be 24 ×10⁻⁶ cm/s. For the same compound, in the series on rat P-gp [4], the efflux ratio at 1 µM turned out to be 1.7.
As to `O=C(N1CCN2CCC1CC2)n1nc(-n2cc(Cl)cn2)c2c1COCC2`, the concentration for half-maximal inhibition (IC50) in series [5] amounted to 37 nM; in series [9] it was 585 nM. The Ratio IC50 in the series listed under Homo sapiens turned out to be 96. Also, the values for the efflux ratio at 1 µM at mouse BCRP (ABCG2) [7] and in the series on rat P-gp [4] were 1.4 and 4.4, respectively. Further, in [8], the MRT turned out to be 1.1 h. This compound returned a CL in series [10] of 120 mL/min/kg. For the same compound, the Papp at 1 µM at mouse BCRP (ABCG2) [11] came out at 32 ×10⁻⁶ cm/s.
For the compound `COc1ccc(-c2nn(C(=O)N3CCN4CCC3CC4)c3c2CCOC3)cc1`, the IC50 in series [5] was 35 nM; in series [9], 338 nM. The Ratio IC50 in the series listed under Homo sapiens is 164. In addition, the figures for the efflux ratio at 1 µM on mouse BCRP (ABCG2) [7] and in the series on rat P-gp [4] were 1.4 and 4.4, respectively. For the same compound, the MRT in series [8] is 0.7 h. The CL in series [10] was 3510 mL/min/kg. Moreover, at mouse BCRP (ABCG2) [11], the Papp at 1 µM was 32 ×10⁻⁶ cm/s.
In the case of `CCN1CCCN(C(=O)c2nn(-c3ccc(OC)cc3)c3c2COCC3)CC1`, the IC50 in series [2] came out at 7400 nM.
In the case of `CC1(C)Cc2c(c(-c3ccc(F)cc3)nn2C(=O)N2CCN3CCC2CC3)CO1`, the IC50 in series [5] came out at 32 nM; in series [9], 4210 nM. Moreover, the Ratio IC50 in the series listed under Homo sapiens was found to be 470. The efflux ratio at 1 µM at mouse BCRP (ABCG2) [7] was determined as 0.9; in the series on rat P-gp [4] it was 8.5. The compound further came in with an MRT in series [8] of 2.6 h. Moreover, the CL in series [10] amounted to 180 mL/min/kg. Further, the Papp at 1 µM on mouse BCRP (ABCG2) [11] came to 31 ×10⁻⁶ cm/s.
For the compound `O=C(N1CCN2CCC1CC2)n1nc(-n2cc(C(F)(F)F)cn2)c2c1CCC2`, the IC50 in [5] was 32 nM; in series [9] it was 2190 nM. Also, in the series listed under Homo sapiens, the Ratio IC50 was 5480. In [6], the bioavailability was found to be 25%. The results for the efflux ratio at 1 µM at mouse BCRP (ABCG2) [7] and in the series on rat P-gp [4] were 0.8 and 1.7, respectively. In [8], this compound displayed an MRT of 5.9 h. Further, the CL in [10] turned out to be 89 mL/min/kg. Further, at mouse BCRP (ABCG2) [11], the apparent permeability (Papp) at 1 µM came out at 24 ×10⁻⁶ cm/s.
